{"source": "patent US20040167131A1", "about": "“Inhibitors of factor Xa and other serine proteases involved in the coagulation cascade” (Pfizer Inc., priority 2002, published 2004)", "data": [{"biological_target": "T1, human factor Xa (Homo sapiens, UniProt P00742)", "T1 construct": "purchased Enzyme Research Laboratories", "T1 sequence (P00742 235-488 limits assumed)": "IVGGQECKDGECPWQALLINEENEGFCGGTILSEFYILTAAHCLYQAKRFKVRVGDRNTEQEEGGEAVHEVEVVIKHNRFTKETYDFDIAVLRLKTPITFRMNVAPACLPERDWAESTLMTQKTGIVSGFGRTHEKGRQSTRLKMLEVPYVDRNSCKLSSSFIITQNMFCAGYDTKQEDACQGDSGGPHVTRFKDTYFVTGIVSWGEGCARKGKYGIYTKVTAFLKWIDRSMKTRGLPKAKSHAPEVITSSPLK", "T1 sequence (P00742 41-179 partner limits assumed)": "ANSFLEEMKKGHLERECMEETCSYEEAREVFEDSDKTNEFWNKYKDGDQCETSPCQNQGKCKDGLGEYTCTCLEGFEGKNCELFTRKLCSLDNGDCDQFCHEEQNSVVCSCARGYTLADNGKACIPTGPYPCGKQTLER", "experiment": "Determination of Factor Xa IC50 (cleavage of fluorogenic substrate F-S2765)", "format": "biochemical", "details": "3 pM human factor Xa; read-out: FXa 3 pM IC50", "procedure": "(§1) The ability of compounds to act as inhibitors of human factor Xa catalytic activity was assessed by determination of that concentration of test substance that inhibited by 50% (IC50) the ability of human factor Xa to cleave the fluorogenic substrate F-S2765 (N-α-Z-D-Arg-Gly-Arg-pNA HCl, California Peptide Research). […] The IC50 was determined at 3 pM and/or 30 pM concentrations of human factor Xa (Enzyme Research Laboratories). These concentrations were achieved by diluting a stock solution of human factor Xa in the appropriate amount of buffer containing 10 mM HEPES, 150 mM NaCl, and 0.1% BSA at pH 7.4 (HBSA buffer). Accordingly, 73 μL of the factor Xa/buffer solution was added to 2.5 μL of DMSO-reconstituted compound and incubated for 55 minutes at room temperature. After warming to 37° C. for am additional 5 minutes, 50 μL of rewarmed substrate was added and the IC50 determined by monitoring the increase in absorbance at 390 nm excitation/460 nm emission (455 nm cutoff) in a fluorometric plate reader or 30 minutes.", "units": {"IC50": "nM"}, "values": [{"molecule": "CS(=O)(=O)c1ccccc1-c1ccc(NC(=O)C2(NC(=O)Nc3ccc(Cl)cc3)CC2)c(F)c1", "note": "[Example 3, 1-[3-(4-Chloro-phenyl)-ureido]-cyclopropanecarboxylic acid (3-fluoro-2′-methanesulfonyl-biphenyl-4-yl)-amide]", "IC50": 22}, {"molecule": "CC(C)(NC(=O)Nc1ccc(Cl)cc1)C(=O)Nc1ccc(-c2ccccc2S(C)(=O)=O)cc1F", "note": "[Example 7, 2-[3-(4-Chloro-phenyl)-ureido]-N-(3-fluoro-2′-methanesulfonyl-biphenyl-4-yl)-2-methyl-propionamide]", "IC50": 20}, {"molecule": "CS(=O)(=O)c1ccccc1-c1ccc(NC(=O)C2(NC(=O)Nc3ccc(Cl)cc3)CCCCC2)cc1", "note": "[Example 10, 1-[3-(4-Chloro-phenyl)-ureido]-cyclohexanecarboxylic acid (2′-methanesulfonyl-biphenyl-4-yl)-amide]", "IC50": 16}, {"molecule": "CS(=O)(=O)c1ccccc1-c1ccc(NC(=O)C2(NC(=O)Nc3ccc(Cl)cc3)CC2)cc1", "note": "[Example 2, 1-[3-(4-Chloro-phenyl)-ureido]-cyclopropanecarboxylic acid (2′-methanesulfonyl-biphenyl-4-yl)-amide]", "IC50": 33}]}, {"biological_target": "T1, human factor Xa", "experiment": "Determination of Factor Xa IC50 (cleavage of fluorogenic substrate F-S2765)", "format": "biochemical", "details": "30 pM human factor Xa; compound @ 1 μM", "procedure": "as §1", "units": {"FxXa 30 pM, % @ 1 μM": "% @ 1 μM"}, "values": [{"molecule": "CN(CC(=O)Nc1ccc(-c2ccccc2S(C)(=O)=O)cc1F)C(=O)N(C)c1ccc(Cl)cc1", "note": "[Example 14, 2-[3-(4-Chloro-phenyl)-1,3-dimethyl-ureido]-N-(3-fluoro-2′-methanesulfonyl-biphenyl-4-yl)-acetamide]", "FxXa 30 pM, % @ 1 μM": 18}, {"molecule": "CS(=O)(=O)c1ccccc1-c1ccc(NC(=O)CN(Cc2ccccc2)C(=O)Nc2ccc(Cl)cc2)c(F)c1", "note": "[Example 27, 2-[1-Benzyl-3-(4-chloro-phenyl)-ureido]-N-(3-fluoro-2′-methanesulfonyl-biphenyl-4-yl)-acetamide]", "FxXa 30 pM, % @ 1 μM": 30}, {"molecule": "CN(C)CCN(CC(=O)Nc1ccc(-c2ccccc2S(C)(=O)=O)cc1F)C(=O)Nc1ccc(Cl)cc1", "note": "[Example 26, 2-[3-(4-Chloro-phenyl)-1-(2-dimethylamino-ethyl)-ureido]-N-(3-fluoro-2′-methanesulfonyl-biphenyl-4-yl)-acetamide]", "FxXa 30 pM, % @ 1 μM": 13.7}, {"molecule": "CN(C(=O)NCC(=O)Nc1ccc(-c2ccccc2S(C)(=O)=O)cc1F)c1ccc(Cl)cc1", "note": "[Example 13, 2-[3-(4-Chloro-phenyl)-3-methyl-ureido]-N-(3-fluoro-2′-methanesulfonyl-biphenyl-4-yl)-acetamide]", "FxXa 30 pM, % @ 1 μM": 17}]}, {"biological_target": "T1, human factor Xa", "experiment": "Determination of Factor Xa IC50 (cleavage of fluorogenic substrate F-S2765)", "format": "biochemical", "details": "30 pM human factor Xa; read-out: FxXa 30 pM IC50", "procedure": "as §1", "units": {"IC50": "nM"}, "values": [{"molecule": "CS(=O)(=O)c1ccccc1-c1ccc(NC(=O)C2(NC(=O)Nc3ccc(Cl)cn3)CC2)c(F)c1", "note": "[Example 4, 1-[3-(5-Chloro-pyridin-2-yl)-ureido]-cyclopropanecarboxylic acid (3-fluoro-2′-methanesulfonyl-biphenyl-4-yl)-amide]", "IC50": 255}, {"molecule": "NS(=O)(=O)c1ccccc1-c1ccc(NC(=O)C2(NC(=O)Nc3ccc(Cl)cc3)CC=CC2)c(F)c1", "note": "[Example 11, 1-[3-(4-Chloro-phenyl)-ureido]-cyclopent-3-enecarboxylic acid (3-fluoro-2′-sulfamoyl-biphenyl-4-yl)-amide]", "IC50": 66}, {"molecule": "CS(=O)(=O)c1ccccc1-c1ccc(NC(=O)[C@@]2(NC(=O)Nc3ccc(Cl)cc3)C[C@@H]2CO)c(F)c1", "note": "[Example 20, (1R,2S)-1-[3-(4-Chloro-phenyl)-ureido]-2-hydroxymethyl-cyclopropanecarboxylic acid (3-fluoro-2′-methanesulfonyl-biphenyl-4-yl)-amide]", "IC50": 35}, {"molecule": "COCCN(CC(=O)Nc1ccc(-c2ccccc2S(C)(=O)=O)cc1F)C(=O)Nc1ccc(Cl)cc1", "note": "[Example 24, 2-[3-(4-Chloro-phenyl)-1-(2-methoxy-ethyl)-ureido]-N-(3-fluoro-2′-methanesulfonyl-biphenyl-4-yl)-acetamide]", "IC50": 26}, {"molecule": "CC(C)(NC(=O)Nc1ccc(Cl)cc1)C(=O)Nc1ccc(-c2ccccc2S(N)(=O)=O)cc1F", "note": "[Example 9]", "IC50": 44}, {"molecule": "O=C(Nc1ccc(Cl)cc1)N[C@@]1(C(=O)Nc2ccc(N3CCCCC3=O)cc2F)C[C@@H]1CO", "note": "[Example 19, (1S,2S)-1-[3-(4-Chloro-phenyl)-ureido]-2-hydroxymethyl-cyclopropanecarboxylic acid [2-fluoro-4-(2-oxo-piperidin-1-yl)-phenyl]-amide]", "IC50": 129}, {"molecule": "COc1ccc(CN(CC(=O)Nc2ccc(-c3ccccc3S(C)(=O)=O)cc2F)C(=O)Nc2ccc(Cl)cc2)cc1", "note": "[Example 28, 2-[3-(4-Chloro-phenyl)-1-(4-methoxy-benzyl)ureido]-N-(3-fluoro-2′-methanesulfonyl-biphenyl-4-yl)-acetamide]", "IC50": 80}, {"molecule": "COCCN(CC(=O)Nc1ccc(N2CCCCC2=O)cc1F)C(=O)Nc1ccc(Cl)cc1", "note": "[Example 29, 2-[3-(4-Chloro-phenyl)-1-(2-methoxy-ethyl)-ureido]-N-[2-fluoro-4-(2-oxo-piperidin-1-yl)-phenyl]-acetamide]", "IC50": 224}, {"molecule": "NS(=O)(=O)c1ccccc1-c1ccc(NC(=O)C2(NC(=O)Nc3ccc(Cl)cc3)CC2)c(F)c1", "note": "[Example 5, 1-[3-(4-Chloro-phenyl)-ureido]-cyclopropanecarboxylic acid (3-fluoro-2′-sulfamoyl-biphenyl-4-yl)-amide]", "IC50": 36}, {"molecule": "CS(=O)(=O)c1ccccc1-c1ccc(NC(=O)[C@]2(NC(=O)Nc3ccc(Cl)cc3)C[C@@H]2CO)c(F)c1", "note": "[Example 18, (1S,2S)-1-[3-(4-Chloro-phenyl)-ureido]-2-hydroxymethyl-cyclopropanecarboxylic acid (3-fluoro-2′-methanesulfonyl-biphenyl-4-yl)-amide]", "IC50": 21}, {"molecule": "NS(=O)(=O)c1ccccc1-c1ccc(NC(=O)C2(NC(=O)Nc3ccc(Cl)cn3)CC2)c(F)c1", "note": "[Example 6, 1-[3-(5-Chloro-pyridin-2-yl)-ureido]-cyclopropanecarboxylic acid (3-fluoro-2′-sulfamoyl-biphenyl-4-yl)-amide]", "IC50": 192}, {"molecule": "CS(=O)(=O)c1ccccc1-c1ccc(NC(=O)C2(NC(=O)Nc3ccc(Cl)cc3)CCN(C(=O)OCc3ccccc3)C2)c(F)c1", "note": "(stereo not shown) [Example 22, 3-[3-(4-Chloro-phenyl)-ureido]-3-(3-fluoro-2′-methanesulfonyl-biphenyl-4-ylcarbamoyl)-pyrrolidine-1-carboxylic acid benzyl ester]", "IC50": 175}, {"molecule": "NS(=O)(=O)c1ccccc1-c1ccc(NC(=O)C(CO)(CO)NC(=O)Nc2ccc(Cl)cc2)cc1", "note": "[Example 15, 2-[3-(4-Chloro-phenyl)-ureido]-3-hydroxy-2-hydroxymethyl-N-(2′-sulfamoyl-biphenyl-4-yl)-propionamide]", "IC50": 29}, {"molecule": "O=C(Nc1ccc(Cl)cc1)N[C@]1(C(=O)Nc2ccc(N3CCCCC3=O)cc2F)C[C@@H]1CO", "note": "[Example 21, (1R,2S)-1-[3-(4-Chloro-phenyl)-ureido]-2-hydroxymethyl-cyclopropanecarboxylic acid [2-fluoro-4-(2-oxo-piperidin-1-yl)-phenyl]-amide]", "IC50": 140}, {"molecule": "CN(CC(=O)Nc1ccc(-c2ccccc2S(C)(=O)=O)cc1F)C(=O)Nc1ccc(Cl)cc1", "note": "[Example 12, 2-[3-(4-Chloro-phenyl)-1-methyl-ureido]-N-(3-fluoro-2′-methanesulfonyl-biphenyl-4-yl)-acetamide]", "IC50": 20}, {"molecule": "CC(C)(NC(=O)Nc1ccc(Cl)cn1)C(=O)Nc1ccc(-c2ccccc2S(C)(=O)=O)cc1F", "note": "[Example 8, 2-[3-(5-Chloro-pyridin-2-yl)-ureido]-N-(3-fluoro-2′-methanesulfonyl-biphenyl-4-yl)-2-methyl-propionamide]", "IC50": 287}, {"molecule": "CC(C)CN(CC(=O)Nc1ccc(-c2ccccc2S(C)(=O)=O)cc1F)C(=O)Nc1ccc(Cl)cc1", "note": "[Example 25, 2-[3-(4-Chloro-phenyl)-1-isobutyl-ureido]-N-(3-fluoro-2′-methanesulfonyl-biphenyl-4-yl)-acetamide]", "IC50": 105}, {"molecule": "NS(=O)(=O)c1ccccc1-c1ccc(NC(=O)C2(NC(=O)Nc3ccc(Cl)cc3)CCSCC2)c(F)c1", "note": "[Example 17, 4-[3-(4-Chloro-phenyl)-ureido]-tetrahydro-thiopyran-4-carboxylic acid (3-fluoro-2′-sulfamoyl-biphenyl-4-yl)-amide]", "IC50": 65}, {"molecule": "NS(=O)(=O)c1ccccc1-c1ccc(NC(=O)C2(NC(=O)Nc3ccc(Cl)cc3)CCOCC2)c(F)c1", "note": "[Example 16, 4-[3-(4-Chloro-phenyl)-ureido]-tetrahydro-pyran-4-carboxylic acid (3-fluoro-2′-sulfamoyl-biphenyl-4-yl)-amide]", "IC50": 252}]}, {"system": "not given", "experiment": "not given", "details": "models of arterial and venous thrombosis; cited from earlier work", "values": [{"molecule": "Antistasin: a potent inhibitor of blood coagulation factor Xa from the Mexican leech, Haementeria officinalis (protein, UniProt P15358 18-136, looked up) Antistasin: QGPFGPGCEEAGCPEGSACNIITDRCTCSGVRCRMHCPHGFQRSRYGCEFCKCRLEPMKATCDISECPEGMMCSRLTNKCDCKIDINCRKTCPNGLKRDKLGCEYCECRPKRKLIPRLS", "antithrombotic activity": "displays antithrombotic activity"}]}]}
